From PMC4385830, “Group I Paks as therapeutic targets in NF2-deficient meningioma” (Oncotarget, 2015)

Legend:
Test in all cases: Kinase selectivity, Z'-LYTE
Assay type in all cases: biochemical
[1] = target: T1, ACVR1B (ALK4) (Homo sapiens, UniProt P36896)
T1 construct: purchased Invitrogen (Life Technologies) SelectScreen Z'-LYTE
T1 sequence (P36896 24-505): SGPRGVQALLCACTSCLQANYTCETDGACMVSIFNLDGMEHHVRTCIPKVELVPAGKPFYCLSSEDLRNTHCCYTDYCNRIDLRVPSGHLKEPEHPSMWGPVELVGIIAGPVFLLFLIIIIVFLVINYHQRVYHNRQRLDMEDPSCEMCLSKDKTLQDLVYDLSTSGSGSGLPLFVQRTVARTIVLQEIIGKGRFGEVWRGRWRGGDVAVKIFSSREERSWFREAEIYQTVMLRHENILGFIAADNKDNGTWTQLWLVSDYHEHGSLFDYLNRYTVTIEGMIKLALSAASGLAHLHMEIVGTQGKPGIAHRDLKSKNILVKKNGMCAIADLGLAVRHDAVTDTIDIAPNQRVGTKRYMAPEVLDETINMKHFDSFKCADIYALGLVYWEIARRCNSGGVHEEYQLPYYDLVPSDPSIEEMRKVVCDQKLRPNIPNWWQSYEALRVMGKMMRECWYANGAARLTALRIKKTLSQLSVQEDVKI
Experimental: (§1) Kinase selectivity was assessed using a commercial service that employs a fluorescence-based, coupled-enzyme assay based on the differential sensitivity of phosphorylated and non-phosphorylated peptides to proteolytic cleavage (Invitrogen, Z'-LYTE®). This assay uses recombinant protein kinases and assay mixed optimized for each particular kinase (http://www.lifetechnologies.com/us/en/home/life-science/drug-discovery/target-and-lead-identification-and-validation /kinasebiology/kinase-activity-assays/z-lyte.html).

[2] = target: T2, ADRBK1 (GRK2) (Homo sapiens, UniProt P25098)
T2 construct: purchased Invitrogen (Life Technologies) SelectScreen Z'-LYTE
T2 sequence (P25098 1-689): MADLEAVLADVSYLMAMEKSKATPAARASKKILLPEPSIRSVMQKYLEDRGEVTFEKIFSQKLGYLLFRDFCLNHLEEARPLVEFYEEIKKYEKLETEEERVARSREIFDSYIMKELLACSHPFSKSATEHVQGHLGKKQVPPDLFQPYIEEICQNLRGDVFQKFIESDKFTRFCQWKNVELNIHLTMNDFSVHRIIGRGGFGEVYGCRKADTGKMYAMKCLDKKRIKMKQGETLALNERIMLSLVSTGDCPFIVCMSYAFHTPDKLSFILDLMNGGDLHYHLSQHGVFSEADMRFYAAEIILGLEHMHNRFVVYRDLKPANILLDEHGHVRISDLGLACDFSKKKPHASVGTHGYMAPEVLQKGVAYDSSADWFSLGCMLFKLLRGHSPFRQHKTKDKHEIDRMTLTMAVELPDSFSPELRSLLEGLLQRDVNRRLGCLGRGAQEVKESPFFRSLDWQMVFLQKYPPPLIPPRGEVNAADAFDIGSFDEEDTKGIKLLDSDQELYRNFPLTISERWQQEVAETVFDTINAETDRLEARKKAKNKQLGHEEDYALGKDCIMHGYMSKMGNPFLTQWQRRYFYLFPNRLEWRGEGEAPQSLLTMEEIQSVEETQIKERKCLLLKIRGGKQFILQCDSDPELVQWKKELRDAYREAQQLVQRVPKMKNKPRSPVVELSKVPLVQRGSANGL
Experimental: as §1

[3] = target: T3, BTK (Homo sapiens, UniProt Q06187)
T3 construct: purchased Invitrogen (Life Technologies) SelectScreen Z'-LYTE
Experimental: as §1

[4] = target: T4, CSNK1D (CK1 delta) (Homo sapiens, UniProt P48730)
T4 construct: purchased Invitrogen (Life Technologies) SelectScreen Z'-LYTE
Experimental: as §1

[5] = target: T5, FRAP1 (mTOR) (Homo sapiens, UniProt P42345)
T5 construct: purchased Invitrogen (Life Technologies) SelectScreen Z'-LYTE
Experimental: as §1

[6] = target: T6, ITK (Homo sapiens, UniProt Q08881)
T6 construct: purchased Invitrogen (Life Technologies) SelectScreen Z'-LYTE
T6 sequence (Q08881 1-620): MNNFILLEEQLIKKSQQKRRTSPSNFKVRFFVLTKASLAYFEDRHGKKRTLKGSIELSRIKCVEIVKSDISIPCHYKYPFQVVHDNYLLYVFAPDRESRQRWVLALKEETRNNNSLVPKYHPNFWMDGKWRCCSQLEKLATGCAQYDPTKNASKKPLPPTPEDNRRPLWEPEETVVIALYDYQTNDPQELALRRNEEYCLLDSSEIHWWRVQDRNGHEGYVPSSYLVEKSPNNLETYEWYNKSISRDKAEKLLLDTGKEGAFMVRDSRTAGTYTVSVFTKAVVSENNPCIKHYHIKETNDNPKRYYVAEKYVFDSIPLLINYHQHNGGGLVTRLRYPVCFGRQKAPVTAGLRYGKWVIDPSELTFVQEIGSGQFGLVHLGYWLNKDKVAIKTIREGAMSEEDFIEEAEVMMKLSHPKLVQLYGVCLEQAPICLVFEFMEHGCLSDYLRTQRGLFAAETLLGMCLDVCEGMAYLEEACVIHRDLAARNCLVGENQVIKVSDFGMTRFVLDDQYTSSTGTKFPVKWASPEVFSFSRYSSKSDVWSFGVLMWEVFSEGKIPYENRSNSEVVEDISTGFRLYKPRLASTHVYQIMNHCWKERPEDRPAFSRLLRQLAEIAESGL
Experimental: as §1

[7] = target: T7, KIT (Homo sapiens, UniProt P10721)
T7 construct: purchased Invitrogen (Life Technologies) SelectScreen Z'-LYTE
Experimental: as §1

[8] = target: T8, LYNA (Homo sapiens, UniProt P07948)
T8 construct: purchased Invitrogen (Life Technologies) SelectScreen Z'-LYTE
Experimental: as §1

[9] = target: T9, MST1R (RON) (Homo sapiens, UniProt Q04912)
T9 construct: purchased Invitrogen (Life Technologies) SelectScreen Z'-LYTE
Experimental: as §1

[10] = target: T10, P1K3CA/PIK3R1 (p110 alpha) (Homo sapiens, UniProt P42336)
T10 construct: purchased Invitrogen (Life Technologies) SelectScreen Z'-LYTE
Experimental: as §1

[11] = target: T11, PAK2 (PAK65) (Homo sapiens, UniProt Q13177)
T11 construct: purchased Invitrogen (Life Technologies) SelectScreen Z'-LYTE
Experimental: as §1

[12] = target: T12, PDGFRB (PDGFR beta) (Homo sapiens, UniProt P09619)
T12 construct: purchased Invitrogen (Life Technologies) SelectScreen Z'-LYTE
Experimental: as §1

T4 sequence (P48730 whole entry): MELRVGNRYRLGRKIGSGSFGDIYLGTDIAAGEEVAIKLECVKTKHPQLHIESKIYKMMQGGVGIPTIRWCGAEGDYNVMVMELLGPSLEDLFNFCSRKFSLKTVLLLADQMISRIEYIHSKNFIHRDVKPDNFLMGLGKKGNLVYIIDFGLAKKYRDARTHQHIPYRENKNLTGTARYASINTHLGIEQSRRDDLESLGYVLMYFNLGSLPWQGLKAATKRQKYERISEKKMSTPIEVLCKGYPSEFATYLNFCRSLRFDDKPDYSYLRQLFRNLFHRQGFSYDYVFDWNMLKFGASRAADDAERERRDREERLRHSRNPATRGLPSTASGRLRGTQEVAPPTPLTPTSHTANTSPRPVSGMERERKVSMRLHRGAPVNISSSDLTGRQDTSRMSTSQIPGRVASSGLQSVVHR
T12 sequence (P09619 33-1106): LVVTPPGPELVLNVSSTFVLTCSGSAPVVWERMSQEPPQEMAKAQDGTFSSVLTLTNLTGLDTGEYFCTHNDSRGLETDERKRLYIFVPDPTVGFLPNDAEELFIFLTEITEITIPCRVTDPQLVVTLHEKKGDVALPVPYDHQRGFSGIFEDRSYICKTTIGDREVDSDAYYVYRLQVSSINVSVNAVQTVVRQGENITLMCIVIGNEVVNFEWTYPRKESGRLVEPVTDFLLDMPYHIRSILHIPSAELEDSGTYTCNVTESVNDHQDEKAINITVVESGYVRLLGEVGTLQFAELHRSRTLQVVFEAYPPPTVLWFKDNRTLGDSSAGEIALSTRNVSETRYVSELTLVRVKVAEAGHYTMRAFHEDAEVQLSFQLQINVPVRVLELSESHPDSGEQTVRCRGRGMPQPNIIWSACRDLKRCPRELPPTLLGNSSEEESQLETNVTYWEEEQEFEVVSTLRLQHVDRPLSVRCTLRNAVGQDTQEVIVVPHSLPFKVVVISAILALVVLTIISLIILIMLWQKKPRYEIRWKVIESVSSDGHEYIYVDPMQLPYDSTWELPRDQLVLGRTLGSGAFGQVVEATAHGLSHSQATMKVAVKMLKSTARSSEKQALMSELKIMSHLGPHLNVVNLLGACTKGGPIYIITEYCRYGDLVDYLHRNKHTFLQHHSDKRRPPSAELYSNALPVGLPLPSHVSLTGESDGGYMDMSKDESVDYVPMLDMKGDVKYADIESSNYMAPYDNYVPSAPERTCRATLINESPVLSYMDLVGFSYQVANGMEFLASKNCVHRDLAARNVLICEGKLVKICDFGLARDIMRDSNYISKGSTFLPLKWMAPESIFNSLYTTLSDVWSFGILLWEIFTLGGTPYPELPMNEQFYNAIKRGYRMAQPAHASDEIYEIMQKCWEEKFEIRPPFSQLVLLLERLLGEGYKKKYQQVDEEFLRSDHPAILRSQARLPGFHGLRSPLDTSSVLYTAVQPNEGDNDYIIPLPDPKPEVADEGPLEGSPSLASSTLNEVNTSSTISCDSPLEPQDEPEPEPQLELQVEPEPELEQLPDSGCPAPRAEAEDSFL
T10 sequence (P42336 whole entry): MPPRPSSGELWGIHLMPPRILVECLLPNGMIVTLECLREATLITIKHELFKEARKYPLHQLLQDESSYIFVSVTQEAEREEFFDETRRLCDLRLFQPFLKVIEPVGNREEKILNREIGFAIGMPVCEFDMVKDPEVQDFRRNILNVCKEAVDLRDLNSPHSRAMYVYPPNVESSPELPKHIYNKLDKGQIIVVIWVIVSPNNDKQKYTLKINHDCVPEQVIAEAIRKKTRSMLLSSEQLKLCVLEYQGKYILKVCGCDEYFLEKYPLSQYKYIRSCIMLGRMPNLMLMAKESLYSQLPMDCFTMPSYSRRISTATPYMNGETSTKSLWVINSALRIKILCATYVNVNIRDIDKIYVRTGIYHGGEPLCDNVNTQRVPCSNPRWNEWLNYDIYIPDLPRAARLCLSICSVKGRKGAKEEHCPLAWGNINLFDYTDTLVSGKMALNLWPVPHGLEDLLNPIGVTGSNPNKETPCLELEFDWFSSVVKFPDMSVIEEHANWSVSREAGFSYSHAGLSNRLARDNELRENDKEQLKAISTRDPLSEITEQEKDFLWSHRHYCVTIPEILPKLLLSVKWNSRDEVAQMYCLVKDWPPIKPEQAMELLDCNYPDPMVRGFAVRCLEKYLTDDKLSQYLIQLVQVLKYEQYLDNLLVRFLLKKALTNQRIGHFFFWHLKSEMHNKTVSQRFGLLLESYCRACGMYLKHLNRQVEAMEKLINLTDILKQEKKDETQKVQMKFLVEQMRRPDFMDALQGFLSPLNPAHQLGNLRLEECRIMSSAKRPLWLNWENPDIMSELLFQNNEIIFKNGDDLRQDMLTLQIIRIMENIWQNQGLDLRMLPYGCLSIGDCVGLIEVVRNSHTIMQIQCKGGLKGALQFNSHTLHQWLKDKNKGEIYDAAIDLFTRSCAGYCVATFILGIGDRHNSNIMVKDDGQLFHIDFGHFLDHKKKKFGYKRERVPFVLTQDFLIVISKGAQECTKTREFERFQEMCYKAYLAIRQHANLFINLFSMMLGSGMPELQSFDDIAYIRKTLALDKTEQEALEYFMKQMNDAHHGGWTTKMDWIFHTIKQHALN
T10 sequence (P27986 whole entry partner): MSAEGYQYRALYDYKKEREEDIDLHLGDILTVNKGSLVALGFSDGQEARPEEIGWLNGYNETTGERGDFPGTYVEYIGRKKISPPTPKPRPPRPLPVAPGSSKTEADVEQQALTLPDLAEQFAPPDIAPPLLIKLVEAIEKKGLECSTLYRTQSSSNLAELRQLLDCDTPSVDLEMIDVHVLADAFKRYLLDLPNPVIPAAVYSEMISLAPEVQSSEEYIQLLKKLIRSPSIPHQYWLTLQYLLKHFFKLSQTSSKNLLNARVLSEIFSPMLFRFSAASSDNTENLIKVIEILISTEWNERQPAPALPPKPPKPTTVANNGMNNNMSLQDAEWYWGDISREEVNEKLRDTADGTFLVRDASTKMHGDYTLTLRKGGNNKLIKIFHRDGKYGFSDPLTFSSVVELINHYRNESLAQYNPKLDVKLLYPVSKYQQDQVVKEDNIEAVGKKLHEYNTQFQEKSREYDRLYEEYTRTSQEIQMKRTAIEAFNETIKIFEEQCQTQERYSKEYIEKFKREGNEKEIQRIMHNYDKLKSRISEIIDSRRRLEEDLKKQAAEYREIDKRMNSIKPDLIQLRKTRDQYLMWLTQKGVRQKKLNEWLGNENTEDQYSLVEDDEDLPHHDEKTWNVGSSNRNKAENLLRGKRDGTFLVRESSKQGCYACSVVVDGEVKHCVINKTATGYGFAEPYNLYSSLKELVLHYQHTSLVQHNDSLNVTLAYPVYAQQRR
T9 sequence (Q04912 25-1400): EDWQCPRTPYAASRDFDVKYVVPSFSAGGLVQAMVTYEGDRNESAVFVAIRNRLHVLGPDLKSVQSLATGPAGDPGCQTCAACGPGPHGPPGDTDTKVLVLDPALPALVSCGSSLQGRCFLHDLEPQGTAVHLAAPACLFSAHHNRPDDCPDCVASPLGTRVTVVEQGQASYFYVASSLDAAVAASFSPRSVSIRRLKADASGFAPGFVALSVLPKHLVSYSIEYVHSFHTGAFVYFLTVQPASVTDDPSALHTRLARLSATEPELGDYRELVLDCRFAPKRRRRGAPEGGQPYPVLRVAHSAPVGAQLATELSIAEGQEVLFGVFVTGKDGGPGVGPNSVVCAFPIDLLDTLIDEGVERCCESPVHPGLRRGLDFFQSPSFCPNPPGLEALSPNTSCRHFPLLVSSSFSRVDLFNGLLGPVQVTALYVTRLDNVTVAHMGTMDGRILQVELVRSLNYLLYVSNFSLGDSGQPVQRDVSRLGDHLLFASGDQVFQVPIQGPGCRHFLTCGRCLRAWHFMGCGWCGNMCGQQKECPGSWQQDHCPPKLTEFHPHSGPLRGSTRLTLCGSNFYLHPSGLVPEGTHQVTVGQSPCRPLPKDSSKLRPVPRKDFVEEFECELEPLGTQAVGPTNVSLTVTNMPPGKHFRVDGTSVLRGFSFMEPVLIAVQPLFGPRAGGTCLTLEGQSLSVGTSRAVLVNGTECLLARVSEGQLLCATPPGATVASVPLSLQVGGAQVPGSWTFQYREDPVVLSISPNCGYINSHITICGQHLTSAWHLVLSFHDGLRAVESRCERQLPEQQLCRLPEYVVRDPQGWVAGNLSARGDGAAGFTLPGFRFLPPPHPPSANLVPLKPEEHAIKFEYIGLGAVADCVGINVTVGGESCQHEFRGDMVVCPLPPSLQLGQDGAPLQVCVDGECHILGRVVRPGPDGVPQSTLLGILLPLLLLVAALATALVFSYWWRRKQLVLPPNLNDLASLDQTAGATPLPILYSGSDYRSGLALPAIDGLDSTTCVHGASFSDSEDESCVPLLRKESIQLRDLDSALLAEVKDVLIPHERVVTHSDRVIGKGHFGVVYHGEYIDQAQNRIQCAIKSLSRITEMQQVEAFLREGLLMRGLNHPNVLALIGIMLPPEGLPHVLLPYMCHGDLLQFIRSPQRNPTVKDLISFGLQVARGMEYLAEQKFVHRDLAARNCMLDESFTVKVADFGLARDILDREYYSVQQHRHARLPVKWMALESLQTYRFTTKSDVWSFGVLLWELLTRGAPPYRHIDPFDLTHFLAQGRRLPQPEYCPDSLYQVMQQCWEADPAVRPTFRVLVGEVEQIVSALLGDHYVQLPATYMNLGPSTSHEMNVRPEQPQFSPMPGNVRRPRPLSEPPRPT

## CCn1c(=O)c(-c2ccc(-c3noc(C)n3)cc2Cl)cc2cnc(Nc3ccc(C4CCN(C)CC4)cc3)nc21 [Frax716]
[1]
  % inhibition of activity: −9%
[2]
  % inhibition of activity: 10%
[3]
  % inhibition of activity: 87%
[4]
  % inhibition of activity: 6%
[5]
  % inhibition of activity: 1%
[6]
  % inhibition of activity: 84%
[7]
  % inhibition of activity: 77%
[8]
  % inhibition of activity: 88%
[9]
  % inhibition of activity: 40%
[10]
  % inhibition of activity: −1%
[11]
  % inhibition of activity: 100%
[12]
  % inhibition of activity: 82%

## CCn1c(=O)c(-c2ccc(-c3cncc(C)n3)cc2Cl)cc2cnc(NCCC3CCN(C)CC3)nc21 [Frax1036]
[1]
  % inhibition of activity: 0%
[2]
  % inhibition of activity: 0%
[3]
  % inhibition of activity: 5%
[4]
  % inhibition of activity: 11%
[5]
  % inhibition of activity: 0%
[6]
  % inhibition of activity: 0%
[7]
  % inhibition of activity: 32%
[8]
  % inhibition of activity: 39%
[9]
  % inhibition of activity: 55%
[10]
  % inhibition of activity: 0%
[11]
  % inhibition of activity: 98%
[12]
  % inhibition of activity: 83%

## Cc1nc(Nc2[nH]nc3c2CN(C(=O)N[C@H](CN(C)C)c2ccccc2)C3(C)C)c2sccc2n1 [PF3758309, reference compound]
[1]
  % inhibition of activity: 1%
[2]
  % inhibition of activity: 10%
[3]
  % inhibition of activity: 74%
[4]
  % inhibition of activity: 3%
[5]
  % inhibition of activity: 0%
[6]
  % inhibition of activity: 23%
[7]
  % inhibition of activity: 7%
[8]
  % inhibition of activity: 76%
[9]
  % inhibition of activity: 8%
[10]
  % inhibition of activity: 0%
[11]
  % inhibition of activity: 100%
[12]
  % inhibition of activity: 14%
